Results as given in patent publication US12365677B2, “Degraders that target proteins via KEAP1” (DANA-FARBER CANCER INSTITUTE, INC., priority 2018, dated 2025).

Experiments:
Assay type in all cases: cell-based
[1] = tested on: BRD2-BD1, BRD2-BD2, BRD3-BD1, BRD3-BD2, BRD4-BD1, BRD4-BD2 as GFP fusion proteins; experiment: FACS eGFP/mCherry reporter cell lines for single bromodomains, degradation compared across bromodomains; details: concentration series starting at 20 μM, 5× dilution, 24 hours at 37° C.
From the text: (§1) To evaluate the activity of KEAP1-BRD targeting degraders in the cell, FACS-enabled stable reporter cell lines for single Bromodomain (BD) of the BRD2, 3 and 4 proteins were developed using the pCDNA5/FRT vector of the FLp-In system and followed the manufacturer's protocol.
(§2) A DNA sequence was constructed where a single BD (BD1 or BD2) of a BRD protein was tagged at the C-terminus with an enhanced Green Fluorescent Protein (eGFP). This sequence was followed by a P2A linker and a sequence that codes for mCherry fluorescent protein. The P2A linker that is located between the eGFP-tagged protein and the mCherry causes a single cut in the backbone amide bonds of the polypeptide during the translation of the mRNA, resulting in generation of two polypeptide chains, an eGFP-tagged protein and a mCherry protein. The expression level of these two polypeptides is therefore identical as they originate from a single mRNA, making the mCherry signal an expression level reporter as an internal reference. […]
(§3) The treated cells were then harvested by trypsin digest, brought to a volume of 200 μL with DMEM medium supplemented with 10% FBS and transferred to a 96-well assay plate for FACS reading. The eGFP/RFP ratio for each condition was then calculated and normalized against the zero-compound condition and plotted. […]

BRD2BD2 = target: T1, BRD2BD2 (Homo sapiens, UniProt P25440); experiment: Rescue of degradation in reporter cell line by pre-treatment with inhibitors (compound 1); details: then concentration series of the degrader for 24 hours
T1 construct: a single BD (BD1 or BD2) of a BRD protein was tagged at the C-terminus with an enhanced Green Fluorescent Protein (eGFP); P2A linker (part left after the co-translational cut; mCherry is released as a separate chain) (C); expressed in transfected cells
T1 sequence (P25440 344-453): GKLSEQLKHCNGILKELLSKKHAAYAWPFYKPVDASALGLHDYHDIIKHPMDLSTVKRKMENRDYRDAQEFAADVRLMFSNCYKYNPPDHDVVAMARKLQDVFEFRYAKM
From the text: as §1, §2
The treated cells were then harvested by trypsin digest, brought to a volume of 200 μL with DMEM medium supplemented with 10% FBS and transferred to a 96-well assay plate for FACS reading. The eGFP/RFP ratio for each condition was then calculated and normalized against the zero-compound condition and plotted.
The rescue of BRD2BD2 degradation with two inhibitors JQ1 and MLN4924 was then determined. […]

BRD3 = target: T2, BRD3 (Homo sapiens, UniProt Q15059); experiment: Immunoblot of MM.1S multiple myeloma cells; details: MM.1S cells
T2 construct: endogenous in cells; host or cells: MM.1S multiple myeloma cells
T2 sequence (Q15059 whole entry): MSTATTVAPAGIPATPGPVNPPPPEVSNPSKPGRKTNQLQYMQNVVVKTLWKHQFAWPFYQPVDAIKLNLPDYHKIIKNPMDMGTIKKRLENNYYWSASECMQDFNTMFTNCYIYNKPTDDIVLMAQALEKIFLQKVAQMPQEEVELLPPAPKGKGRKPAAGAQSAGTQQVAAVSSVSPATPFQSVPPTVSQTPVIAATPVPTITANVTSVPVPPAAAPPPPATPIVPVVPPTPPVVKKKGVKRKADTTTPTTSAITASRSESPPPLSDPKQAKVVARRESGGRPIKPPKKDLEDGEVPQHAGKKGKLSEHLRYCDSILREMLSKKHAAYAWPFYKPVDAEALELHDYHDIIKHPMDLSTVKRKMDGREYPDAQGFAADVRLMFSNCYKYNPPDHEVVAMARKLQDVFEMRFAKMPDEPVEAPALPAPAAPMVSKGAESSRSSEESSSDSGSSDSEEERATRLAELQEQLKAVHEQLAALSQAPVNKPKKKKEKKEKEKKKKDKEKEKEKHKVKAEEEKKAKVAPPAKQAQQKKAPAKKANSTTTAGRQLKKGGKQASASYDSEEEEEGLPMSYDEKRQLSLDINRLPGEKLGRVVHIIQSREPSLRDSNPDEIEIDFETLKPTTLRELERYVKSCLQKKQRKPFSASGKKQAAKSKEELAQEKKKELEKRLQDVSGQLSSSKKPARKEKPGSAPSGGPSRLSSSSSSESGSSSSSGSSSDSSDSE
Description: (§4) MM.1S multiple myeloma cells were treated with 0, 1, 5 μM bifunctional compound 1 and 9 or bifunctional compound 20 (0.5 μM, as a positive control, known degrader of BRD) for 14 or 24 h, then lysed and immunoblotted with antibodies to BRD2, BRD3, BRD4 and β-Actin.
(§5) MM.1S multiple myeloma cells were treated with 0, 1, 5 μM bifunctional compound 1 and 9 or bifunctional compound 20 (0.5 μM, as a positive control) for 14 or 24 h, then lysed and immunoblotted with antibodies to BRD2, BRD3, BRD4 and β-Actin.

BRD4 = target: T3, BRD4 (Homo sapiens, UniProt O60885); experiment: Immunoblot of MM.1S multiple myeloma cells; details: MM.1S cells
T3 construct: endogenous in cells; host or cells: MM.1S multiple myeloma cells
Description: as §4, §5

BRD2 [2] = target: T4, BRD2 (Homo sapiens, UniProt P25440); experiment: Immunoblot of MM.1S multiple myeloma cells; design: endogenous in cells; host or cells: MM.1S multiple myeloma cells; details: MM.1S cells
T4 sequence (P25440 whole entry): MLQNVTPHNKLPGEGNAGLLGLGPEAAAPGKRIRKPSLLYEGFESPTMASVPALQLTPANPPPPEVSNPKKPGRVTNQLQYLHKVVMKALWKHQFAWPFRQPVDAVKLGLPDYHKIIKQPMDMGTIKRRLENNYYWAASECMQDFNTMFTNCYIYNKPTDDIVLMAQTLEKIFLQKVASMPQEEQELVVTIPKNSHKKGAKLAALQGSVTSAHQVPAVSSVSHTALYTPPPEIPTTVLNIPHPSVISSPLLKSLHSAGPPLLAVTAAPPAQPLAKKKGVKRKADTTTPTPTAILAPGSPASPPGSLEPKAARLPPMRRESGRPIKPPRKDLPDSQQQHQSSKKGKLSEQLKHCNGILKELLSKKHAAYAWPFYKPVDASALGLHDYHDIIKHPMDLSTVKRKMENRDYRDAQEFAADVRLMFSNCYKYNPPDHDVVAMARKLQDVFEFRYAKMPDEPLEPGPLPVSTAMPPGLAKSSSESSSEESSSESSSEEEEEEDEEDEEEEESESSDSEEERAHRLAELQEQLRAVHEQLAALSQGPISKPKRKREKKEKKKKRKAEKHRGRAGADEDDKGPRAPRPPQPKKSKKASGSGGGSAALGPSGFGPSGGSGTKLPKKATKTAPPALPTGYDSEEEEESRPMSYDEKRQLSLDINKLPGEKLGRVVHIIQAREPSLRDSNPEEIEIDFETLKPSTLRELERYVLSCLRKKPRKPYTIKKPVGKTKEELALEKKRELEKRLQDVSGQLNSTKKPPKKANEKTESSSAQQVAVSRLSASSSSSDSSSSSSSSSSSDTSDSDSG
Description: as §4, §5

BRD2^BD1 [3] = target: T5, BRD2^BD1 (Homo sapiens, UniProt P25440); experiment: Rescue of degradation in reporter cell line by pre-treatment with inhibitors (compound 9); details: pre-treated with 10 μM JQ1 for 1 hour, then concentration series of the degrader for 24 hours
T5 construct: a single BD (BD1 or BD2) of a BRD protein was tagged at the C-terminus with an enhanced Green Fluorescent Protein (eGFP); P2A linker (part left after the co-translational cut; mCherry is released as a separate chain) (C); expressed in transfected cells
T5 sequence (P25440 74-180 limits assumed): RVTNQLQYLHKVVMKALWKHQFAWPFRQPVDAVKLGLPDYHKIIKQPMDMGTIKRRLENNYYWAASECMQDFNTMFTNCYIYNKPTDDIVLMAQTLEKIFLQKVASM
T5 sequence (Q14145 whole entry, further chain): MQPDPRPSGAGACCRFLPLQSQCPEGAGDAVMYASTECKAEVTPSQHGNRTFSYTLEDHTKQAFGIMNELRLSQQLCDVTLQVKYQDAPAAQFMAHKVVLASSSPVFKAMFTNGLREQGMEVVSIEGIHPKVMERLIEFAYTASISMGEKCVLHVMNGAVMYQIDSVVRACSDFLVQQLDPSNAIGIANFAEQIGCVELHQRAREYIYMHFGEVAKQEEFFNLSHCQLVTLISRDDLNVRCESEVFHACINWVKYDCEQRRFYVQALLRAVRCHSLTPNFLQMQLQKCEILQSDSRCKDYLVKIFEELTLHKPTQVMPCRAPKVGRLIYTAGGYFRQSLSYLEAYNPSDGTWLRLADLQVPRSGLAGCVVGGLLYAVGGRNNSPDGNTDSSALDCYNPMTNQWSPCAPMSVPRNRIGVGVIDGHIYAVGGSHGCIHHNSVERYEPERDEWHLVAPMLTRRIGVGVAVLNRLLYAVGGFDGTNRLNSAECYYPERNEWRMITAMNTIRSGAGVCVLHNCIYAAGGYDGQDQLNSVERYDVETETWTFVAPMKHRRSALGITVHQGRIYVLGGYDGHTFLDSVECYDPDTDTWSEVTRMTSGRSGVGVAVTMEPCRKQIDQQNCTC
From the text: as §1
(§6) A DNA sequence was constructed where a single BD (BD1 or BD2) of a BRD protein was tagged at the C-terminus with an enhanced Green Fluorescent Protein (eGFP). This sequence was followed by a P2A linker and a sequence that codes for mCherry fluorescent protein. The P2A linker that is located between the eGFP-tagged protein and the mCherry causes a single cut in the backbone amide bonds of the polypeptide during the translation of the mRNA, resulting in generation of two polypeptide chains, an eGFP-tagged protein and a mCherry protein. The expression level of these two polypeptides is therefore identical as they originate from a single mRNA, making the mCherry signal an expression level reporter as an internal reference.
(§7) The reporter cell lines were seeded on a 48-well plate the day before. […]
as §3

BRD2^BD1 [4] = target: T6, BRD2^BD1 (Homo sapiens, UniProt P25440+Q14145); experiment: as above; details: pre-treated with 10 μM MLN4924 for 1 hour, then concentration series of the degrader for 24 hours
T6 construct: a single BD (BD1 or BD2) of a BRD protein was tagged at the C-terminus with an enhanced Green Fluorescent Protein (eGFP); P2A linker (part left after the co-translational cut; mCherry is released as a separate chain) (C); expressed in transfected cells
T6 sequence (P25440 74-180 limits assumed): as the sequence (P25440 74-180 limits assumed) above
T6 sequence (Q14145 whole entry): as the sequence (Q14145 whole entry, further chain) above
From the text: as §1, §6, §7, §3

BRD2 [5] = target: T4, BRD2; experiment: TMT quantitative proteomics, change in relative protein abundance in HEK293T cells; design: endogenous in cells; host or cells: HEK293T cells; details: 5 μM, 6 hours
Description: Lysis buffer (8 M Urea, 50 mM NaCl, 50 mM 4-(2hydroxyethyl)-1-piperazineethanesulfonic acid (EPPS) pH 8.5. Protease and Phosphatase inhibitors from Roche) was added to the cell pellets and homogenized by 20 passes through a 21 gauge (1.25 in. long) needle to achieve a cell lysate with a protein concentration between 1-4 mg/mL. A micro-BCA assay (Pierce™) was used to determine the final protein concentration in the cell lysate. 200 μg of protein for each sample were reduced and alkylated as previously described. Proteins were precipitated using methanol/chloroform. In brief, four volumes of methanol were added to the cell lysate, followed by one volume of chloroform, and finally three volumes of water. The mixture was vortexed and centrifuged to separate the chloroform phase from the aqueous phase. […]
Precipitated protein was resuspended in 4 M urea, 50 mM HEPES pH 7.4, followed by dilution to 1 M urea with the addition of 200 mM EPPS, pH 8. […] The sample channels were combined at a 1:1:1:1:1:1:1:1:1:1 ratio, desalted using C18 solid phase extraction cartridges (Waters™) and analyzed by LC-MS for channel ratio comparison.
Samples were then combined using the adjusted volumes determined in the channel ratio analysis and dried down in a speed vacuum. […]

SMILES: COc1cc(C(CC(=O)O)c2ccc(C)c(CN3C[C@@H](C)Oc4cc(CCCCCCNC(=O)C[C@@H]5N=C(c6ccc(Cl)cc6)c6c(sc(C)c6C)-n6c(C)nnc65)ccc4S3(=O)=O)c2)cc2nnn(C)c12 (stereo partly drawn) [compound 1, 3-(3-(((R)-7-(6-(2-((S)-4-(4-chlorophenyl)-2,3,9-trimethyl-6H-thieno[3,2-f][1,2,4]triazolo[4,3-a][1,4]diazepin-6-yl)acetamido)hexyl)-4-methyl-1,1-dioxido-3,4-dihydro-2H-benzo[b][1,4,5]oxathiazepin-2-yl)methyl)-4-methylphenyl)-3-(7-methoxy-1-methyl-1H-benzo[d][1,2,3]triazol-5-yl)propanoic acid]
- degradation of BRD bromodomain reporters (normalized eGFP/RFP ratio), comparison between bromodomains [1]: with the exception of BRD4BD1, bifunctional compound 1 targeted BRD-BD proteins with similar efficiency
- rescue of BRD2BD2 degradation by JQ1 (BRD2BD2; pre-treated with 10 μM JQ1 for 1 hour): can be rescued by JQ1
- rescue of BRD2BD2 degradation by MLN4924 (BRD2BD2; pre-treated with 10 μM MLN4924 for 1 hour): rescued by the neddylation inhibitor, MLN4924
- degradation of BRD3 (immunoblot) (BRD3; 1 μM, both 14 and 24 h): strongly induced the degradation
- degradation of BRD3 (immunoblot), hook effect (BRD3; 5 μM, 14 or 24 h): a decrease in BRD2, BRD3 and BRD4 degradation were observed
- degradation of BRD4 (immunoblot) (BRD4; 1 μM, both 14 and 24 h): strongly induced the degradation
- degradation of BRD4 (immunoblot), hook effect (BRD4; 5 μM, 14 or 24 h): a decrease in BRD2, BRD3 and BRD4 degradation were observed
- degradation of BRD2 (immunoblot) (BRD2 [2]; 1 μM, both 14 and 24 h): slightly decreased the abundance
- degradation of BRD2 (immunoblot), hook effect (BRD2 [2]; 5 μM, 14 or 24 h): a decrease in BRD2, BRD3 and BRD4 degradation were observed

SMILES: COc1cc(C(CC(=O)O)c2ccc(C)c(CN(C)S(=O)(=O)c3ccc(OCCCCCCNC(=O)C[C@@H]4N=C(c5ccc(Cl)cc5)c5c(sc(C)c5C)-n5c(C)nnc54)cc3)c2)cc2nnn(C)c12 (stereo partly drawn) [compound 9, 3-(3-((4-(6-(2-((6S)-4-(4-chlorophenyl)-2,3,9-trimethyl-6H-thieno[3,2-f][1,2,4]triazolo[4,3-a][1,4]diazepin-6-yl)acetamido)hexyloxy)-N-methylphenylsulfonamido)methyl)-4-methylphenyl)-3-(7-methoxy-1-methyl-1H-benzo[d][1,2,3]triazol-5-yl)propanoic acid]
- degradation of BRD bromodomain reporters (normalized eGFP/RFP ratio), comparison between bromodomains [1]: modest preference for BRD2^BD1 and BRD4^BD1
- rescue of BRD2^BD1 degradation by JQ1 (BRD2^BD1 [3]): can be rescued by JQ1
- rescue of BRD2^BD1 degradation by MLN4924 (BRD2^BD1 [4]): rescued by the neddylation inhibitor, MLN4924
- degradation of BRD3 (immunoblot) (BRD3; 5 μM, 24 h): slightly degraded
- degradation of BRD4 (immunoblot) (BRD4; 5 μM, 24 h): slightly degraded
- BRD2 degradation (relative protein abundance vs DMSO) (BRD2 [5]): BRD2 degradation was observed
- degradation of BRD2 (immunoblot) (BRD2 [2]; 5 μM, 24 h): slightly degraded
